Literature values as cited in patent US20190105278A1, “SHELLAC MICROCAPSULE FORMULATIONS AND COMPOSITIONS” (CONARIS RESEARCH INSTITUTE AG, priority 2016, published 2019).

Details: EFSA; for acceptable daily intake (ADI): preparations with at least 90% purity

Row | upper systemic intake limit | acceptable daily intake (ADI) | Compound
1 | 5 mg/kg | 5 mg/kg body weight | CC(=O)Nc1ccc(S(=O)(=O)[O-])c2cc(S(=O)(=O)[O-])c(N=Nc3ccc(N=Nc4ccc(S(=O)(=O)[O-])cc4)c4ccc(S(=O)(=O)[O-])cc34)c(O)c12.[Na+].[Na+].[Na+].[Na+] [brilliant black BN]
2 |  | 5 mg/kg body weight | O=C1/C(=C2\Nc3ccc(S(=O)(=O)[O-])cc3C2=O)Nc2ccc(S(=O)(=O)[O-])cc21.[Na+].[Na+] [indigo carmine]
3 | 5 mg/kg | 5 mg/kg body weight | CCN(CC)c1ccc(C(=C2C=CC(=[N+](CC)CC)C=C2)c2cc(O)c(S(=O)(=O)[O-])cc2S(=O)(=O)[O-])cc1.CCN(CC)c1ccc(C(=C2C=CC(=[N+](CC)CC)C=C2)c2cc(O)c(S(=O)(=O)[O-])cc2S(=O)(=O)[O-])cc1.[Ca+2] [patent blue V]
